From publication PMC11375702, “Early Preclinical Studies of Ergosterol Peroxide and Biological Evaluation of Its Derivatives” (ACS Omega, 2024)

Legend:
[1] = Caco-2 permeability assay; format: in vitro ADME; details: human; for efflux ratio at 2 h, 10 µmol/L: Caco-2, pH 7.4, Caco-2, read-out: efflux ratio (B2A/A2B); for Papp A→B at 2 h, 10 µmol/L / Papp B→A at 2 h, 10 µmol/L: Caco-2, pH 7.4; for Papp A→B at 2 h, 10 µmol/L: apical to basolateral; for Papp B→A at 2 h, 10 µmol/L: basolateral to apical
Description: It was performed in the 96-well Transwell system with a modified method.[36] Caco-2 cells were maintained at 37 °C in a humidified incubator with an atmosphere of 5% CO2. The cells were cultured in MEM containing 20% FBS in […], 100 units/mL penicillin, and 100 μg/mL of streptomycin. The Caco-2 cells were seeded onto inserts of a 96-well plate at a density of 0.5 × 10^5 cells/insert and cultured in the MEM containing 20% FBS for 7 days. Each cultured monolayer on the 96-well plate was washed twice with HBSS/HEPES (10 mM, pH 7.4). The permeability assay was initiated by the addition of each compound solution (10 μmol/L) into inserts (apical side, A) or receivers (basolateral side, B). The Caco-2 cell monolayers were incubated for 2 h at 37 °C. Fractions were collected from receivers (if apical to basal permeability) or inserts (if basal to apical permeability), and concentrations were assessed by UPLC/MS (Waters; Milford, MA). All compounds were tested in triplicates. The A → B (or B → A) apparent permeability coefficients ([…]) of each compound were calculated using the equation Pappa = dQ/dt × 1/AC0. The flux of a drug across the monolayer is dQ/dt (μmol/s). The initial drug concentration on the apical side is C0 (μmol/L). The surface area of the monolayer is A (cm^2).

[2] = test system: BJ; assay: CellTiter-Glo 72 h cytotoxicity assay, BJ normal fibroblasts; format: cell-based; details: Homo sapiens, CTG assay, noncancerous fibroblasts
Description: The following stable human cell lines were utilized for this study: SUM149 and MDA-MB-231 (breast cancer models) and BJ (human normal fibroblast, foreskin). Cells were purchased from BioIVT or the American Type Culture Collection (ATCC). Cells were cultured in F-12-Nutrient Mixture (SUM149), DMEM (MDA-MB-231), or EMEM (BJ) medium supplemented with 10% fetal bovine serum (Sigma-Aldrich, St. Louis, MO) and 2 mmol of L-glutamine, at 37 °C in a humidified 5% CO2 atmosphere (no antibiotics) as indicated by the manufacturer. Cell cultures were grown to 80–90% confluence before use, except where otherwise specified. Our cell lines are authenticated every 3 months using the CellCheck service (Idexx BioResearch, Westbrook, ME). Cells were tested for mycoplasma prior to use (MycoAlert detection Kit Lonza LT07–318) and discarded if they tested positive. A cell proliferation assay was performed using the CellTiter-Glo (Promega Corp., Madison, WI) luminescent cell viability assay kit. Cells were detached with trypsin, counted, and seeded in white polystyrene flat-bottom sterile 96-well tissue culture-treated plates (catalog no. 3917, Corning, Glendale, Arizona) and incubated overnight at 37 °C. MDA-MB231, SUM149, and BJ cells were seeded into 96-well plates at concentrations experimentally determined (0.4 × 10^4, 0.25 × 10^4, and 0.3 × 10^4 cells per well, respectively) to ensure logarithmic growth during the duration of the experiment and to prevent adverse effects on cell growth by DMSO exposure. The plates were incubated for 12 h before treatment. Stock solutions of test compounds (10 mM in DMSO) in nine 3-fold serial dilutions were dispensed. The final concentration of DMSO was 0.3% (v/v) in each well. The positive control used was staurosporine (10 μM) as the kill-all control, and the negative control used is DMSO as we have published. Staurosporine is a potent alkaloid inducer of various cell death modalities but primarily apoptosis, making it a reliable positive control for viability assays. The plates were incubated for 72 h and then quenched with CTG at 50 μL per well at RT. Plates were then incubated at RT for 20 min and centrifuged at 1000 rpm for 1 min. Luminescence was read on a CLARIOstar Plus plate reader (BMG LabTech, Ortenberg, Germany).
Three or four technical replicates were conducted for each experimental condition, and a minimum of three independent experiments were conducted for each assay. In vitro ADME values were expressed as mean ± standard deviation (SD) of at least three independent experiments. One-way analysis of variance (ANOVA) was adopted for comparisons among groups using the GraphPad Prism 10.2.3 (GraphPad Software, San Diego, CA). A difference of P < 0.05 was considered as statistically significant. Data are expressed as mean ± SEM. For CTG, the mean luminescence of each experimental treatment group was normalized as a percentage of the mean intensity of untreated controls (DMSO as vehicle). EC50 values were calculated from dose–response curve fitting via nonlinear regression using GraphPad Prism 10.2.3 (GraphPad Software, San Diego, CA). A therapeutic index (TI) between normal and tumor cell lines can be determined (EC50 non-neoplastic cell line BJ)/(EC50 cancer cell line). In vivo studies were analyzed using mixed-effects regression models to compare the changes in tumor volume over time by treatment group. Tumor volume reduction was compared using ANOVA with repeated measures, and all data was considered significant when P < 0.05.

[3] = Simulated gastric fluid (SGF) stability; format: in vitro ADME; details: simulated gi fluid; for half-life: SGF stability t1/2
Description: The simulated gastric fluid (SGF) assay is an important element in determining the overall drug-like potential of compounds.[29],[30] Anecdotal studies of oral consumption of extracts by humans indicate positive outcomes of digestion of mixtures of EP and its related natural products found in G. lucidum.[2] […] Chlorambucil was used as positive control as previously described.[32],[33] […] Caco-2 permeability studies were conducted to validate and to provide information on EP’s ability to cross the intestinal barrier and its potential for interactions with drug transporters.[36]−[39] The rate of transport in both directions (A-B and B-A) across the cell monolayer enables an efflux ratio (B-A/A-B) to be determined, enabling us to determine if a compound undergoes active efflux (efflux ratio ≥2).

Structure (SMILES): CC(C)[C@@H](C)/C=C/[C@@H](C)[C@H]1CC[C@@H]2[C@]1(C)CC[C@H]1[C@]23C=C[C@]2(C[C@@H](O)CC[C@]12C)OO3 [Compound 2, Ergosterol peroxide]
- efflux ratio at 2 h, 10 µmol/L [1]: ~1
- Papp A→B at 2 h, 10 µmol/L [1]: 34.2 ×10⁻⁶ cm/s
- Papp B→A at 2 h, 10 µmol/L [1]: 31.9 ×10⁻⁶ cm/s
- EC50 [2]: > 50 µM
- half-life [3]: > 48 h

Structure (SMILES): CC(C)[C@@H](C)/C=C/[C@@H](C)[C@H]1CC[C@@H]2[C@]1(C)CC[C@H]1[C@]23C=C[C@]2(CC(=O)CC[C@]12C)OO3 [Compound 3]
- efflux ratio at 2 h, 10 µmol/L [1]: 0.49
- Papp A→B at 2 h, 10 µmol/L [1]: 0.626 ×10⁻⁶ cm/s
- Papp B→A at 2 h, 10 µmol/L [1]: 0.307 ×10⁻⁶ cm/s
- EC50 [2]: > 50 µM
- SGF stability t1/2 [3]: 8.92 h
- half-life [3]: ~9 h
